Results published in patent US10280163B2 (BeiGene, Ltd., priority 2015, dated 2019).
Counter-ions that a name gives are not always drawn. Like-named read-outs stand apart in the source and are kept apart here.

How the values were obtained:
Recombinant IDO1 = target: T1, Recombinant IDO1 (Homo sapiens, UniProt P14902); assay: IDO1 enzymatic assay; type: biochemical; settings: 50 nM IDO1, 1.3 mM D-tryptophan, read-out: Enzyme IC50 (nM) IDO1
T1 construct: His tag (N); made in house; host or cells: E. coli
Procedure: Recombinant IDO1 was overexpressed and purified from E. coli cells with an N-terminal His tag. IDO1 enzymatic assay was carried out using a methodology similar to described in the literature (J. Biol. Chem. (1980), 255, 1339-1345.). The reaction mixture contains 50 nM IDO1, 1.3 mM D-tryptophan, 5 mM L-ascorbic acid, 6.25 μM methylene Blue, 0.4 mg/mL catalase and compound (or DMSO) in a buffer containing 50 mM potassium phosphate pH 7.5 and 0.1% BSA. After incubation at 24° C. for 1.5 hours, absorbance of the reaction mixture was continuously read at 321 nm to monitor the formation of N′-formylkynurenine by a FULOstar OMEGA plate reader (BMG LABTECH) for 1 hour. The enzymatic activity was determined by measuring the slope of the linear absorbance increase as a function of time. The IC50s are calculated based on remaining enzyme activity in the presence of increasing concentrations of compounds.

[1] = target: T2, cellular IDO1 in HeLa cells (Homo sapiens, UniProt P14902); assay: HeLa cell-based IDO1 Kyn (kynurenine) production assay; settings: IFN-γ 100 ng/mL, 48 hours
T2 construct: endogenous in cells; host or cells: HeLa cells (American Type Tissue Culture Collection), induced with human recombinant IFN-γ
Procedure: HeLa Cell-Based IDO1 Kyn (Kynurenine) Production Assay:
The inhibitory activity of IDO1 inhibitors is determined by using a colorimetric reaction to measure Kyn generated from L-Trp (L-Tryptophon) oxidation by cellular IDO1 in HeLa cells after induction of IDO1 by IFN-γ.
Hela cells were obtained from the American Type Tissue Culture Collection and recovered in 10% FBS-containing phenol red-free DMEM medium supplemented with 0.4 mM L-Trp. Cells were plated onto a 96-well plate (100 μl/well) at 8000 cells per well. Human recombinant IFN-γ (8901SC, CST) was added to cells (final concentration 100 ng/mL) to stimulate endogenous IDO1. Compounds at different concentrations diluted in dimethylsulfoxide (DMSO) were added simultaneously with IFN-γ. Cells were kept at 37° C. in a humidified incubator supplied with 5% CO2. After 48 hours of incubation, 100 μl supernatant from each well was removed to a new plate. The protein in the medium was precipitated with the addition of 8 μl 6N trichloroacetic acid. The plate was incubated at 60° C. for 45 min and then centrifugation at 2500 rpm for 10 min to remove sediments. 80 μl supernatants were carefully removed to a new clean plate and added with an equal volume of 2% 4-(Dimethylamino) benzaldehyde (D2004, sigma) dissolved in glacial acetic acid. The absorbance at 480 nm wavelength derived from Kyn was measured using a FULOstar OMEGA plate reader (BMG LABTECH). The IC50 for each compound was derived from fitting the dose-response data to the four-parameter logistic model by using Graphpad Prism software.

[2] = Table 1, 5-substituted imidazo[1,5-a]pyridines
[3] = Table 2, 8-substituted imidazo[1,5-a]pyridines

T1 sequence (P14902 whole entry): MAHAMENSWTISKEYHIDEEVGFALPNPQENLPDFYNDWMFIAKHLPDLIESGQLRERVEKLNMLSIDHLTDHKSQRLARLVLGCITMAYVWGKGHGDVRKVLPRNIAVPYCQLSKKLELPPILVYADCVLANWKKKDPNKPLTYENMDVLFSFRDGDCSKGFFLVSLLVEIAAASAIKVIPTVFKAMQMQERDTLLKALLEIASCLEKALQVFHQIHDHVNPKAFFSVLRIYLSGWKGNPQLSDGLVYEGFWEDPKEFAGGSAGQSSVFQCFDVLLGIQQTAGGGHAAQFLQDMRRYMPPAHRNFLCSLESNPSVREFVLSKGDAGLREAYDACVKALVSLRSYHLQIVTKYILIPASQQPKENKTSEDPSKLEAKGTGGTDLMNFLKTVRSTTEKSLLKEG
T2 sequence (P14902 whole entry): as above

| IC50 (Recombinant IDO1; [2]) [nM] | EC50 [1, 2] [nM] | IC50 (Recombinant IDO1; [3]) [nM] | EC50 [1, 3] [nM] | Compound |
| --- | --- | --- | --- | --- |
|  |  | 100 | 149 | OC(c1c(C2CC2)ccn2cncc12)C1CCC(c2ccccc2)CC1 (mixture of isomers) [Example B143, (7-cyclopropylimidazo[1,5-a]pyridin-8-yl)(4-phenylcyclohexyl)methanol] |
|  |  | 340 | 676 | OC(c1c([C@H]2C[C@H]2F)ccn2cncc12)C1CCCCC1 (mixture of isomers) [Example B126b, cyclohexyl(7-(cis-2-fluorocyclopropyl)imidazo [1,5-a]pyridin-8-yl)methanol] |
|  |  | 93 | 1130 | OC(CC1CCCCC1)c1c([C@H]2C[C@H]2F)ccn2cncc12 (mixture of isomers) [Example B127b, 2-Cyclohexyl-1-(7-(cis-2-fluorocyclopropyl)imidazo[1,5-a]pyridin-8-yl)ethan-1-ol] |
|  |  | 100 | 184 | OC(c1c([C@H]2C[C@@H]2F)ccn2cncc12)C1CCCCC1 (mixture of isomers) [Example B128a, Cyclohexyl(7-((trans)-2-fluorocyclopropyl)imidazo[1,5-a]pyridin-8-yl)methanol] |
|  |  | 340 | 942 | OC(c1c([C@H]2C[C@H]2F)ccn2cncc12)C1CCCCC1 (relative stereo) [Example B126a, cyclohexyl(7-(cis-2-fluorocyclopropyl)imidazo [1,5-a]pyridin-8-yl)methanol] |
|  |  | 88 | 595 | OC(CC1CCCCC1)c1c([C@H]2C[C@H]2F)ccn2cncc12 (relative stereo) [Example B127a, 2-Cyclohexyl-1-(7-(cis-2-fluorocyclopropyl)imidazo[1,5-a]pyridin-8-yl)ethan-1-ol] |
|  |  | 23 | 129 | CC(C)c1ccn2cncc2c1C(O)C1CCCCC1 (single isomer, unassigned) [Example B106a] |
|  |  | 1800 | > 10000 | CC(C)c1ccn2cncc2c1C(O)C1CCCCC1 (single isomer, unassigned) [Example B106b] |
|  |  | 18 | 215 | OC(CC1CCCCC1)c1c(C2CC2)ccn2cncc12 (single isomer, unassigned) [Example B110a] |
|  |  | 4.9 | > 10000 | OC(CC1CCCCC1)c1c(C2CC2)ccn2cncc12 (single isomer, unassigned) [Example B110b] |
|  |  | 280 | 1360 | OC(c1c(C2CC2)ccn2cncc12)[C@H]1CC[C@H](O)CC1 (single isomer, unassigned) [Example B119a, (trans)-4-((7-Cyclopropylimidazo[1,5-a]pyridin-8-yl)(hydroxy)methyl)cyclohexan-1-ol] |
|  |  | 5500 | > 10000 | OC(c1c(C2CC2)ccn2cncc12)[C@H]1CC[C@H](O)CC1 (single isomer, unassigned) [Example B119b, (trans)-4-((7-Cyclopropylimidazo[1,5-a]pyridin-8-yl)(hydroxy)methyl)cyclohexan-1-ol] |
|  |  | 7700 | > 10000 | OC(c1c(C2CC2)ccn2cncc12)[C@H]1CC[C@@H](O)CC1 (single isomer, unassigned) [Example B119c] |
|  |  | 110 | 2990 | OC(c1c(C2CC2)ccn2cncc12)[C@H]1CC[C@@H](O)CC1 (single isomer, unassigned) [Example B119d] |
|  |  | > 100000 |  | O=C(c1ccccc1)c1cccn2cncc12 [Example B003, Imidazo[1,5-a]pyridin-8-yl(phenyl)methanone] |

Further lines, the compound ahead of its results:

| Compound | IC50 (Recombinant IDO1; [2]) [nM] | EC50 [1, 2] [nM] | IC50 (Recombinant IDO1; [3]) [nM] | EC50 [1, 3] [nM] |
| --- | --- | --- | --- | --- |
| 1-(7-bromo-8-chloroimidazo[1,5-a]pyridin-5-yl)-2-cyclohexylethan-1-ol [Example A147] | 420 | 2790 |  |  |
| OC1CCCC(C(O)c2c(C3CC3)ccc3cncn23)C1 (racemic) [Example A164a, 3-((6-Cyclopropylimidazo[1,5-a]pyridin-5-yl)(hydroxy)methyl)cyclohexan-1-ol] | 71 | 598 |  |  |
| OC1CCCC(C(O)c2c(C3CC3)ccc3cncn23)C1 (racemic) [Example A164c, 3-((6-Cyclopropylimidazo[1,5-a]pyridin-5-yl)(hydroxy)methyl)cyclohexan-1-ol] | 54 | 570 |  |  |
| OC(c1cccc2cncn12)C1CCCCC1 (single isomer, unassigned) [Example A001b] | 11000 |  |  |  |
| OC1CCC(C(O)c2c(C3CC3)ccc3cncn23)CC1 (single isomer, unassigned) [Example A142b] | 31 | 312 |  |  |
| OC1CCC([C@@H](O)c2c(C3CC3)ccc3cncn23)CC1 (single isomer, unassigned) [Example A142c] | 2000 | > 10000 |  |  |
| OC1CCC([C@@H](O)c2c(C3CC3)ccc3cncn23)CC1 (single isomer, unassigned) [Example A142d] | 9200 | > 10000 |  |  |
| OC(c1cccc2cncn12)C1CCCC1 (centres unmarked) [Example A002, cyclopentyl(imidazo[1,5-a]pyridin-5-yl)methanol] | 150 |  |  |  |
| OC(c1cccc2cncn12)C1CC1 (centres unmarked) [Example A003, cyclopropyl(imidazo[1,5-a]pyridin-5-yl)methanol] | 3800 |  |  |  |
| C#CC(O)c1cccc2cncn12 (centres unmarked) [Example A006, 1-(imidazo[1,5-a]pyridin-5-yl)prop-2-yn-1-ol] | 4600 |  |  |  |
| OC(c1ccccc1)c1cccc2cncn12 (centres unmarked) [Example A007, imidazo[1,5-a]pyridin-5-yl(phenyl)methanol] | 5100 |  |  |  |
| OC(c1cccc2cncn12)C1CCOCC1 (centres unmarked) [Example A010, imidazo[1,5-a]pyridin-5-yl(tetrahydro-2H-pyran-4-yl)methanol] | 3100 |  |  |  |
| CC(C)(C)OC(=O)N1CCC(C(=O)c2cccc3cncn23)CC1 [Example A011, Tert-butyl 4-(imidazo[1,5-a]pyridine-5-carbonyl)piperidine-1-carboxylate] | > 100000 |  |  |  |
| CC(C)(C)OC(=O)N1CCC(C(O)c2cccc3cncn23)CC1 (centres unmarked) [Example A012, Tert-butyl 4-(hydroxy(imidazo[1,5-a]pyridin-5-yl)methyl)piperidine-1-carboxylate] | 41000 |  |  |  |
| OC(c1cccc2cncn12)C1CCNCC1 (centres unmarked) [Example A013, Imidazo[1,5-a]pyridin-5-yl(piperidin-4-yl)methanol hydrochloride] | > 100000 |  |  |  |
| CN1CCC(C(O)c2cccc3cncn23)CC1 (centres unmarked) [Example A014, Imidazo[1,5-a]pyridin-5-yl(1-methylpiperidin-4-yl)methanol] | > 100000 |  |  |  |
| CC(O)c1cccc2cncn12 (centres unmarked) [Example A017, 1-(imidazo[1,5-a]pyridin-5-yl)ethan-1-ol] | 62000 |  |  |  |
| OC(c1cccc2cncn12)C1CCC1 (centres unmarked) [Example A018, cyclobutyl(imidazo[1,5-a]pyridin-5-yl)methanol] | 1800 |  |  |  |
| OC(Cc1ccccc1)c1cccc2cncn12 (centres unmarked) [Example A019, 1-(imidazo[1,5-a]pyridin-5-yl)-2-phenylethan-1-ol] | 21000 |  |  |  |
| OC(c1ccc(Br)c2cncn12)C1CCCCC1 (centres unmarked) [Example A023, (8-bromoimidazo[1,5-a]pyridin-5-yl)(cyclohexyl)methanol] | 6500 |  |  |  |
| OC(c1ccc(Cl)c2cncn12)C1CCCCC1 (centres unmarked) [Example A024, (8-chloroimidazo[1,5-a]pyridin-5-yl)(cyclohexyl)methanol] | 3300 |  |  |  |
